The values below come from article PMC8012331, “Drug-induced hepatic steatosis in absence of severe mitochondrial dysfunction in HepaRG cells: proof of multiple mechanism-based toxicity” (Cell Biology and Toxicology, 2020).

Where “and” joins values, the source holds several entries; their conditions need not be identical. Equal values may be shown once. Entries after “also recorded” stand apart in the source; their conditions may differ. Read-outs that look alike come from different tables or passages of the source.

Data set [1] relates to de novo lipogenesis (DNL). As to the kind of experiment: DNL from [2-14C]acetic acid in HepaRG cells. In kind it is cell-based, human. To be noted: 4 days, vs control.
For data set [2], the system named is acetyl-CoA carboxylase alpha (ACACA). Kind of data set: RT-qPCR ACACA mRNA in HepaRG cells. In kind it is cell-based, human. To be noted: 4 days, vs control. The procedure: Total RNA was extracted with the Nucleospin RNA isolation system purchased from Macherey-Nagel (Düren, Germany), which included a DNase treatment step. Quantification of isolated RNAs was assessed using a Nanodrop 1000 (Thermo Fisher Scientific, Waltham, MA). RNAs were reverse-transcribed into cDNAs using the High-Capacity cDNA Reverse Transcription Kit purchased from Applied Biosystems (Woolston, UK). Gene expression was assessed by real-time quantitative PCR analysis (RT-qPCR) using SYBR Green PCR Master Mix (Applied Biosystems) and a 384-well QuantStudio™ 7 Flex Real-Time PCR System (Thermo Fisher Scientific). Sequences of the primers used to measure gene expression are presented in Supplementary Table 3. Expression of GAPDH was chosen as reference and the 2^−ΔΔCt calculation method was used to express the relative expression of each selected gene.
(In general: Quantitative PCR measures a nucleic acid by following its amplification.)

In data set [3] the test system is mitochondrial fatty acid oxidation (mtFAO). Kind of data set: mtFAO with [U-14C]palmitic acid in HepaRG cells. In kind it is cell-based, human. The note with it: 4 days, vs control. The procedure:
Experiments were carried out on passages 9 to 16. […] DPEN was dissolved in water.
Results were normalized to total protein content determined using the Pierce BCA assay kit from Thermo Fischer Scientific (Waltham, MA). Results were expressed in comparison to control cells.

The nature of data set [4]: Maximum plasma concentration (Cmax) in patients. It is filed as in vivo, human. The note with it: worked out from cited Cmax in patients.
Another data set concerns apoB secretion. Kind of data set: apoB level in culture medium (ELISA), HepaRG cells. It is filed as cell-based, human. To be noted: 4 days, culture medium, vs control. Background: ELISA stands for enzyme-linked immunosorbent assay.
The next data set deals with IRE1α. Kind of data set: Western blot total IRE1α in HepaRG cells. In kind it is cell-based, human. How it is done:
Cells were lysed in ice-cold CelLytic M buffer (C2978; Sigma Aldrich) containing phosphatase and protease inhibitors from Roche Applied Science (Penzberg, Germany). Protein concentration was determined using the Pierce BCA Protein Assay Kit (Thermo Fisher Scientific) and equal amounts of protein were diluted with NuPAGE LDS Sample Buffer (Thermo Fisher Scientific). Samples (ca. 25 μg of proteins) were then separated by SDS-PAGE using NuPAGE 4–12% Bis-Tris gels (Thermo Fisher Scientific). Proteins were transferred to PVDF membranes (BioRad) and Ponceau S staining was used to confirm equal loading and transfer. Membranes were blocked in 7.5% milk in TBST (10 mM Tris–HCl, 100 mM NaCl, 0.02% Tween 20) for 1 h at room temperature and incubated overnight at 4 °C with antibodies against phospho-IRE1α (Ser724) (Abcam, ab124945), IRE1α (Cell Signaling, 3294), or HSC70 (Santa Cruz, sc-7298), whose dilutions were 1:1000. […] Protein content was quantified by densitometry with ImageJ software (National Institutes of Health, Bethesda, MD).

The conditions of data set [5]: treated patients, ref Schulz M et al., Crit Care 2012 ;16(4):R136, cited from earlier work.
A further data set deals with HepaRG cells. Kind of data set: Cellular ATP level (CellTiter-Glo) in HepaRG cells. In kind it is cell-based, human. To be noted: 4 days, vs controls. A general note: Cellular ATP, detected with luciferase, serves as a proxy for viable cell number.

Consider `COc1ccc2c(c1)c(CC(=O)O)c(C)n2C(=O)c1ccc(Cl)cc1` [INDO, indomethacin], for which the “Effect on DNL” value in data set [1] is recorded as “increased DNL”. In data set [2], the “ACACA mRNA level” value is reported as “augmented mRNA abundance”. Besides, the “Effect on mtFAO” value in data set [3] is “inhibited this metabolic pathway and mild”. The “Concentration corresponding to 100xCmax” value in data set [4] amounted to 2200 µM. Further, the “Effect on apoB secretion” value in the data set with apoB secretion is “reduced the secretion”. Moreover, in the data set on IRE1α, the “Protein level of total IRE1α” value is given as “increased protein level”. In addition, the “Therapeutic blood (or plasma) concentration in patients” value in data set [5] (listed as Indomethacin (INDO)) is 0.3 - 1 mg/L and 0.83 - 2.8 µM.
In the case of `CO[C@H]1/C=C/O[C@@]2(C)Oc3c(C)c(O)c4c(O)c(c(/C=N/N5CCN(C)CC5)c(O)c4c3C2=O)NC(=O)/C(C)=C\C=C\[C@H](C)[C@H](O)[C@@H](C)[C@@H](O)[C@@H](C)[C@H](OC(C)=O)[C@@H]1C` [RIF, rifampicin], the “Effect on DNL” value in data set [1] is “curb this metabolic pathway”. The “Effect on mtFAO” value in data set [3] is listed as “inhibited this metabolic pathway; also recorded: moderate”. For the same compound, the “Concentration corresponding to 100xCmax” value in data set [4] amounted to 1900 µM. Besides, in the data set with apoB secretion, the “Effect on apoB secretion” value was “reduced the secretion”. The “Protein level of total IRE1α” value in the data set with IRE1α is listed as “increased protein level”. Also, the “Loss of cellular ATP relative to the maximum concentration selected for the study” value in the data set on HepaRG cells is recorded as 300 µM (loss of cellular ATP above 30% of the controls for higher concentrations, as shown in Supp. fig 1). In addition, the “Therapeutic blood (or plasma) concentration in patients” value in data set [5] (listed as Rifampicin (RIF)) is 0.1 - 10 mg/L and 0.12 - 12.2 µM.
